Reference: article PMC8148554, “Characterization and Regulation of the Acetolactate Synthase Genes Involved in Acetoin Biosynthesis in Acetobacter pasteurianus” (Foods, 2021)

Target: T1, AlsS2 (Acetobacter pasteurianus, UniProt A0A401X088)
T1 construct: gene NBRC3278_0356; full length, gene 1695 bp (564 residues with stop codon in the gene); pET-22b(+) NdeI/XhoI, E. coli BL21(DE3), His tag (C-terminal by cloning, no stop in primer); about 59 kDa
T1 sequence (A0A401X088 1-564): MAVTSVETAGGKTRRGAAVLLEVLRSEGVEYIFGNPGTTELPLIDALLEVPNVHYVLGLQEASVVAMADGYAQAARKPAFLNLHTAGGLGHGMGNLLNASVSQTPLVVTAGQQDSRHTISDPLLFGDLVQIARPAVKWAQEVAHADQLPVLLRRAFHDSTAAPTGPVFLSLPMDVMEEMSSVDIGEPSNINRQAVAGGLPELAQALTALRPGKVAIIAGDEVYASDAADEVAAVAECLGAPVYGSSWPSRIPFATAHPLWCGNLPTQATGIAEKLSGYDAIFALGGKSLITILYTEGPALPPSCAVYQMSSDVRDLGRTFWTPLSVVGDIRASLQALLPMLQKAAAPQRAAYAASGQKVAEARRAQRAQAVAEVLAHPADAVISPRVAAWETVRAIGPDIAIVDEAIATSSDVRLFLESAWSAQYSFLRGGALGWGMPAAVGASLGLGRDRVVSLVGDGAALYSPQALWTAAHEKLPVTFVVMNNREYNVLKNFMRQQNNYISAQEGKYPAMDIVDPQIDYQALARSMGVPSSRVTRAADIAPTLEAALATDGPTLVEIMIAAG
Experiment: GC detection of benzaldehyde formed
Type: biochemical
Settings: 10 mM benzoylformate, 0.5 mM MgCl2, 1 mM TPP, 100 mM sodium phosphate pH 7.0, 37 °C, 10 h

Compound: O=C(O)C(=O)c1ccccc1 [benzoylformate]
- GC detection of benzaldehyde formed: Benzaldehyde was detected in the reaction mixture
